Common to all, as to assay type: in vivo, Danio rerio
For data set [1], the system named is zebrafish embryos. The data set can be described thus: Chamber-specific heart rate (atrium, ventricle) after 2 h exposure, video recording. Particulars: for EC50: Danio rerio, 4 dpf; for Lowest concentration inducing ventricular bradycardia (LOAEC): significant decrease in ventricular heart rate. How it is done:
(§1) Experiments were conducted to assess lethality after 24 h exposure and quantify drug-induced effects on heart rate after 2 h exposure. Experiments were performed on day 4 of zebrafish development (4 dpf). On the day of the experiment, eleutheroembryos (hereafter embryos) were distributed into a 6-well plate (Thermo-Fisher Scientific, Madrid, Spain) by adding 12 embryos into each well with 5 mL of test solution. Embryos were exposed by immersion at 20 min intervals so that they could be mounted individually by ensuring equal exposure times in all groups. Each drug was tested at different concentrations (ranging from 1 to 1000 µM) in parallel with a control group (Goods buffer TAPS alone). The concentration range used was based on previous experiments with MDMA [58].
(§2) To avoid the movement of zebrafish embryos during recording, embryos were anesthetized by adding tricaine to exposure medium (0.08 mg/mL) and mounted in 3% methylcellulose (without tricaine) on double depression slides (Paul Marienfeld GmbH & Co. KG, Lauda-Königshofen, Germany) after drug exposure time. […] The slide was then transferred to an inverted light microscope (Nikon eclipse TS100, at 400×/N.A. 0.55, Nikon Instruments Inc., Amsterdam, The Netherlands) fitted with a high-speed video camera (Exilim, CASIO, Shibuya City, Japan). Sequential images of the heart (240 frames per second (fps)) were obtained with the embryo positioned on its side from the lateral position and with a duration of 10 s. Embryos were recorded one at a time, and all experiments were consistently conducted at the same time of day, controlling room temperature variation throughout video recordings.
To quantify atrial and ventricular heart rates in zebrafish, video recordings were analyzed with ImageJ v.1.53t. A plot of dynamic pixels was obtained by selecting an area of the heart ventricle or atrium with a high deviation of pixel intensity by means of the z-projection function (see Figure S4 for representative selection of heart ventricle and atrium area). The frequency as frames/beat was obtained by analyzing the waveform of dynamic pixels by the Fast Fourier Transform algorithm (FFT) using the “spectrum” function in R. Then, the resulting periodogram provides frequency information in cycles per frame, so to calculate the heart rate frequency (beats/min, bpm), the frequency values were multiplied by the frame rate (240 fps) to convert cycles per frame to cycles per second (Hz) and then multiplied by 60 to convert from Hz to bpm.
(§3) Concentration–response curves were derived from 2 h exposures and the 24 h acute toxicity test as effective concentrations 50 (EC50) and lethal concentrations 50 (LC50), respectively. Concentration–response curves were obtained with a sigmoidal concentration–response equation (Hill equation) using the package drc in R software (v.R-3.6.1).
(§4) Statistical analyses were conducted using GraphPad Prism 9 software. For all endpoints reported as means of mean values, data were considered to have a normal distribution according to the central limit theorem (by which means of random samples from any distribution will themselves have a normal distribution). Statistical comparison was performed by two-way ANOVA, followed by Tukey’s test, which was conducted to assess the effect of concentration and chamber (atrium–ventricle) on heart frequency or AI. Fisher’s Exact test was used for the statistical analysis of the proportion of embryos showing AV block and ventricular fibrillation. Students t-test was used to analyze the ventricular beat rate of zebrafish embryos exposed to the Cm.

Data set [2] concerns zebrafish embryos. Briefly: AV block 2:1 and ventricular fibrillation after 2 h exposure. How it is done:
as §1, §2, §4

For data set [3], the system named is zebrafish embryos. The data set can be described thus: Arrhythmicity index (AI, heart rate variability) after 2 h exposure. As to conditions: 500 µM. The protocol: as §1
To avoid the movement of zebrafish embryos during recording, embryos were anesthetized by adding tricaine to exposure medium (0.08 mg/mL) and mounted in 3% methylcellulose (without tricaine) on double depression slides (Paul Marienfeld GmbH & Co. KG, Lauda-Königshofen, Germany) after drug exposure time. […] Embryos were recorded one at a time, and all experiments were consistently conducted at the same time of day, controlling room temperature variation throughout video recordings.
Heartbeat variability was determined by analysis of the interbeat intervals (heart period) (see Figure 7), similar to the analysis described in [61]. […]

Data set [4] in a line: Twenty-four-hour acute toxicity test (lethality and abnormalities, 4 to 5 dpf). Set-up: Embryos with spasms: dose or concentration left out as unconfirmed. Particulars: zebrafish (Danio rerio), in vivo, other: immersion in test solution; 24 h exposure, 4 to 5 dpf, TAPS buffer pH 8.6; read-out: LC50 (CI95). How it is done: as §1
(§5) Embryos at 4 dpf were distributed to 6-well plates, and 10 embryos were placed into each well with 5 mL of drug test solution. Plates were incubated at 26 ± 1 °C under a 14:10 light:dark cycle for 24 h. Following 24 h exposure, endpoints used for assessing lethality (coagulation or lack of heartbeat) and morphological/functional abnormalities were recorded for each treatment group. Each drug was tested at different concentrations, and at least three independent experiments were performed.
as §3

In data set [5] the test system is zebrafish embryos. The data set is described as above. Set-up: Embryos with spasms: dose or concentration left out as unconfirmed. As to conditions: 24 h exposure between 4 and 5 dpf; for Drug-induced abnormalities: all tested concentrations. The protocol: as §1, §5, §3
The test system of data set [6] is zebrafish embryos. The data set can be described thus: Tachycardic effects: beat rate after 10 min exposure at 10 µM, and ventricular beat rate at Cm after 2 h.
Setting [7] is: atrial bradycardia, read-out: EC50 (CI95) ATRIUM heart rate.
The mark [8] stands for this setting: ventricular bradycardia, read-out: EC50 (CI95) VENTRICLE heart rate.

Like-named read-outs stand apart in the source and are kept apart here.

In the case of `COC(=O)[C@H]1[C@@H](OC(=O)c2ccccc2)C[C@@H]2CC[C@H]1N2C` [Cocaine, cocaine], the EC50 – broadly, the concentration that produces a half-maximal response – was more than 500 µM in the data set on zebrafish embryos [1] (setting [7]) and 97.2 µM with zebrafish embryos [1] (setting [8]). Further, the “Lowest concentration inducing ventricular bradycardia (LOAEC)” value in the data set on zebrafish embryos [1] is 50 µM. Further, the “Lowest concentration provoking AV block” value with zebrafish embryos [2] stood at 50 µM. For the same compound, in the data set on zebrafish embryos [2] (500 µM), the “Embryos with ventricular fibrillation” value is “all embryos”. For the same compound, the Ventricle heartbeat entry with zebrafish embryos [3] was “no ventricle heartbeat”. Further, the LC50 (in general, the concentration lethal to half of the exposed cells or organisms) at 24 h in data set [4] worked out at 173 µM. Besides, the Drug-induced abnormalities result in the data set on zebrafish embryos [5] is “No abnormalities observed”. The “Beat rate after shorter exposure time” value with zebrafish embryos [6] is “significantly increased beat rates”.

As to `CNC(C)Cc1ccc2c(c1)OCO2` (stereo not shown) [MDMA, 3,4-methylenedioxy-methamphetamine], the EC50 is 500 µM in the data set with zebrafish embryos [1] (setting [7]) and 418 µM in the data set with zebrafish embryos [1] (setting [8]). The “Lowest concentration inducing ventricular bradycardia (LOAEC)” value in the data set with zebrafish embryos [1] is 250 µM. Further, the “Lowest concentration provoking AV block” value in the data set on zebrafish embryos [2] came to 500 µM. In addition, in data set [4], the LC50 at 24 h came to 180 µM.

As to `CCCC(C(=O)c1ccc2c(c1)OCO2)N1CCCC1` (stereo not shown) [MDPV, 3,4-methylenedioxy-pyrovalerone], in the data set on zebrafish embryos [1], the “Fold more potent in inducing bradycardia in the ventricle than in the atria (EC50)” value was 3.4 fold and the “Lowest concentration inducing ventricular bradycardia (LOAEC)” value turned out to be 20 µM. For the same compound, the EC50 in the data set on zebrafish embryos [1] (setting [7]) came out at 110 µM. For the same compound, the EC50 in the data set with zebrafish embryos [1] (setting [8]) was determined as 32.7 µM. The “Lowest concentration provoking AV block” value with zebrafish embryos [2] came out at 20 µM. For the same compound, the “Embryos with ventricular fibrillation (AV ratio > 2.5)” value with zebrafish embryos [2] (50 µM) is reported as “more than half of the embryos tested”. For the same compound, the LC50 at 24 h in data set [4] was found to be 135 µM. In the data set on zebrafish embryos [5], this compound came in with an Embryos with spasms of 21%.

With `CNC(C)C(=O)c1ccc(C)cc1` (stereo not shown) [Mephedrone, mephedrone], the figures for the concentration for a half-maximal effect (EC50) in the data set with zebrafish embryos [1] (setting [7]) and in the data set on zebrafish embryos [1] (setting [8]) were 601 µM and 403 µM, respectively. In addition, in the data set on zebrafish embryos [1], the “Lowest concentration inducing ventricular bradycardia (LOAEC)” value is recorded as 250 µM. In addition, the “Lowest concentration provoking AV block” value with zebrafish embryos [2] is 500 µM. Moreover, the 50% lethal concentration (LC50) at 24 h in data set [4] came out at 147 µM. The Drug-induced abnormalities entry in the data set on zebrafish embryos [5] is recorded as “No abnormalities observed”.

As to `CNC(C)C(=O)c1ccc2c(c1)OCO2` (stereo not shown) [Methylone, methylone], the EC50 was more than 1000 µM in the data set on zebrafish embryos [1] (setting [7]) and 522 µM with zebrafish embryos [1] (setting [8]). The “Lowest concentration inducing ventricular bradycardia (LOAEC)” value in the data set on zebrafish embryos [1] turned out to be 250 µM. For the same compound, the “Lowest concentration provoking AV block” value in the data set with zebrafish embryos [2] is 250 µM. Also, in data set [4], the median lethal concentration (LC50) at 24 h amounted to 127 µM. The Drug-induced abnormalities entry in the data set on zebrafish embryos [5] is “No abnormalities observed”.

Source of the values: PMC10531093, “First-Generation Synthetic Cathinones Produce Arrhythmia in Zebrafish Eleutheroembryos: A New Approach Methodology for New Psychoactive Substances Cardiotoxicity Evaluation” (International Journal of Molecular Sciences, 2023).
